Measurements: the NIST ThermoML archive (doi:10.1016/j.fluid.2014.04.002)

Test: xn = mol fraction of the nth substance listed
Conditions: 101 kPa, Liquid; for viscosity: Concentric cylinders viscometry; for mass density: Vibrating tube method

CCOC(=O)C(C)O (stereo not drawn) [DL-ethyl lactate] + C1CCOC1
Conditions	mass density [kg/m3]	viscosity [mPa·s]
288.15 K, x1 = 0.1002	913.682	0.6267
288.15 K, x1 = 0.2001	932.177	0.7629
288.15 K, x1 = 0.3001	949.134	0.9181
288.15 K, x1 = 0.4001	964.944	1.095
288.15 K, x1 = 0.4999	979.595	1.313
288.15 K, x1 = 0.5999	993.315	1.58
288.15 K, x1 = 0.6999	1006.15	1.91
288.15 K, x1 = 0.7999	1018.13	2.309
288.15 K, x1 = 0.8997	1029.17	2.754
288.15 K, x1 = 1	1039.28	3.207
293.15 K, x1 = 0.1002	908.275	0.5901
293.15 K, x1 = 0.2001	926.796	0.7128
293.15 K, x1 = 0.3001	943.748	0.8562
293.15 K, x1 = 0.4001	959.567	1.013
293.15 K, x1 = 0.4999	974.209	1.2
293.15 K, x1 = 0.5999	987.924	1.426
293.15 K, x1 = 0.6999	1000.76	1.701
293.15 K, x1 = 0.7999	1012.74	2.028
293.15 K, x1 = 0.8997	1023.77	2.389
293.15 K, x1 = 1	1033.84	2.75
298.15 K, x1 = 0.1002	902.835	0.5622
298.15 K, x1 = 0.2001	921.368	0.6721
298.15 K, x1 = 0.3001	938.334	0.8003
298.15 K, x1 = 0.4001	954.154	0.9386
298.15 K, x1 = 0.4999	968.8	1.103
298.15 K, x1 = 0.5999	982.515	1.297
298.15 K, x1 = 0.6999	995.342	1.527
298.15 K, x1 = 0.7999	1007.32	1.799
298.15 K, x1 = 0.8997	1018.34	2.096
298.15 K, x1 = 1	1028.39	2.39
303.15 K, x1 = 0.1002	897.364	0.5357
303.15 K, x1 = 0.2001	915.916	0.6349
303.15 K, x1 = 0.3001	932.893	0.7493
303.15 K, x1 = 0.4001	948.718	0.8721
303.15 K, x1 = 0.4999	963.363	1.016
303.15 K, x1 = 0.5999	977.073	1.183
303.15 K, x1 = 0.6999	989.9	1.38
303.15 K, x1 = 0.7999	1001.88	1.607
303.15 K, x1 = 0.8997	1012.89	1.854
303.15 K, x1 = 1	1022.92	2.097
308.15 K, x1 = 0.1002	891.857	0.5111
308.15 K, x1 = 0.2001	910.441	0.6006
308.15 K, x1 = 0.3001	927.416	0.7023
308.15 K, x1 = 0.4001	943.254	0.8122
308.15 K, x1 = 0.4999	957.89	0.9381
308.15 K, x1 = 0.5999	971.596	1.084
308.15 K, x1 = 0.6999	984.431	1.255
308.15 K, x1 = 0.7999	996.411	1.449
308.15 K, x1 = 0.8997	1007.43	1.657
308.15 K, x1 = 1	1017.42	1.858
313.15 K, x1 = 0.1002	886.313	0.4852
313.15 K, x1 = 0.2001	904.918	0.5661
313.15 K, x1 = 0.3001	921.903	0.659
313.15 K, x1 = 0.4001	937.749	0.7575
313.15 K, x1 = 0.4999	952.388	0.8692
313.15 K, x1 = 0.5999	966.093	0.9979
313.15 K, x1 = 0.6999	978.93	1.146
313.15 K, x1 = 0.7999	990.912	1.313
313.15 K, x1 = 0.8997	1001.93	1.489
313.15 K, x1 = 1	1011.9	1.658
318.15 K, x1 = 0.1002	880.728	0.4556
318.15 K, x1 = 0.2001	899.348	0.5305
318.15 K, x1 = 0.3001	916.356	0.6187
318.15 K, x1 = 0.4001	932.209	0.7066
318.15 K, x1 = 0.4999	946.847	0.8068
318.15 K, x1 = 0.5999	960.559	0.92
318.15 K, x1 = 0.6999	973.398	1.052
318.15 K, x1 = 0.7999	985.384	1.196
318.15 K, x1 = 0.8997	996.4	1.348
318.15 K, x1 = 1	1006.36	1.491
323.15 K, x1 = 0.1002	875.1	0.4242
323.15 K, x1 = 0.2001	893.744	0.5003
323.15 K, x1 = 0.3001	910.77	0.5839
323.15 K, x1 = 0.4001	926.634	0.6648
323.15 K, x1 = 0.4999	941.277	0.755
323.15 K, x1 = 0.5999	954.994	0.8565
323.15 K, x1 = 0.6999	967.835	0.9727
323.15 K, x1 = 0.7999	979.827	1.103
323.15 K, x1 = 0.8997	990.842	1.235
323.15 K, x1 = 1	1000.79	1.349
